Test results taken from patent publication US10618944B2, “Tumor suppressor SALL1 as a therapeutic agent for treating cancer” (Saint Louis University, priority 2015, dated 2020).

What was measured:
[1] = tested on: ATM-associated DNA damage response in E0771; assay: DNA damage response markers by FACS; format: cell-based, murine; conditions: KU55933 20 μM
Protocol: (§1) The expression of DNA damage response markers on tumor cells were determined by FACS analysis after staining with anti-human specific antibodies conjugated with either PE or FITC. These human antibodies included: anti-phosphorylated H2Ax, anti-phosphorylated p53 bp, and anti-phosphorylated ATM, which were purchased from Cell Signaling Technology or BD Biosciences. All stained cells were analyzed on a FACSCalibur flow cytometer (BD Bioscience) and data analyzed with FlowJo software (Tree Star).

[2] = tested on: MCF-7; assay: Senescence associated β-Galactosidase (SA-β-Gal) staining; format: cell-based, human; conditions: for SALL1-induced senescent cell populations with MAPK inhibitor: 10 μM for 5 days, SALL1-transfected cells
Protocol: (§2) Senescence associated β-Galactosidase (SA-β-Gal) activity in tumor cells was detected as previously described (30, 33). Briefly, tumor cell lines were transfected with or without plasmids and cultured for 3 or 5 days. Cells were washed in PBS (pH 7.2), fixed in 3% formaldehyde, and followed to incubate overnight at 37° C. with freshly prepared SA-β-Gal staining solution (1 mg/ml X-gal, 5 mM K3Fe[CN]6, 5 mM K4Fe[CN]6, 2 mM MgCl2 in PBS at pH 6.0). The stained cells were washed with H2O and examined with a microscope. For some experiments, SA-β-Gal^+ populations were determined in the transfected tumor cells in the presence of following various inhibitors or combined transfection with shRNAs: ATM inhibitor KU55933 (20 μM, Tocris Bioscience); mTOR inhibitor Rapmycin (5 μM, Sigma); MAPK inhibitors U0126 (10 μM), SB203580 (10 μM) and SP600125 (10 μM), or PI3 Kinase inhibitor Wortminnin (10 μM) (Calbiochemistry), or transfection with shRNAs against p38, ERK and mTOR, for 3 or 5 days. The treated tumor cells were then detected for SA-β-Gal expression.
(§3) The methods for design and construction of shRNA specific for ERK1, ERK2, P38a, JNK1 and mTOR or scrambled lenti-shRNAs, and generation of recombinant lentivirus carrying GFP and shRNA, have been described previously (Peng et al., 2005 and Peng et al., 2007). For virus transfection, concentrated lentiviral supernatant with a multiplicity of infection (MOI) of 5-10 in a total volume of 0.5 ml culture medium was added to the tumor cells growing in 24 well plates containing 8 μg/ml polybrene (Sigma), and then centrifuged at 1000×g for 1 hr at room temperature. Tumor cells were sorted into GFP^+ and GFP^− cells with a FACS ARIA sorter at 3 or 4 days post-transfection. The sorted cells (GFP^+ and GFP^−) were then transfected with or without pcDNA3.1-SALL-1, and induction of senescence was determined.

[3] = tested on: ATM-associated DNA damage response in MCF-7; assay: DNA damage response markers by FACS; format: cell-based, human; conditions: KU55933 20 μM
Protocol: as §1

[4] = tested on: E0771; assay: Senescence associated β-Galactosidase (SA-β-Gal) staining; format: cell-based, murine; conditions: for SALL1-induced senescent cell populations with MAPK inhibitor: 10 μM for 5 days, SALL1-transfected cells
Protocol: as §2, §3

[5] = pretreated 20 μM for 1 day, then SALL1 transfection, 3 days

| Structure (SMILES) | phosphorylation of ATM in SALL1-transfected tumor cells with inhibitor [1] | SALL1-induced senescence induction with ATM inhibitor [2, 5] | phosphorylation of ATM in SALL1-transfected tumor cells with inhibitor [3] | SALL1-induced senescence induction with ATM inhibitor [4, 5] | SALL1-induced senescent cell populations with MAPK inhibitor [2] | SALL1-induced senescent cell populations with MAPK inhibitor [4] |
| --- | --- | --- | --- | --- | --- | --- |
| O=c1cc(-c2cccc3c2Sc2ccccc2S3)oc(N2CCOCC2)c1 [KU55933] | dramatically suppressed | prevented the senescence induction | dramatically suppressed | prevented the senescence induction |  |  |
| C[S+]([O-])c1ccc(-c2nc(-c3ccncc3)c(-c3ccc(F)cc3)[nH]2)cc1 (centres unmarked) [SB203580] |  |  |  |  | significantly reduced | significantly reduced |
| N#CC(=C(/N)Sc1ccccc1N)/C(C#N)=C(\N)Sc1ccccc1N [U0126] |  |  |  |  | significantly reduced | significantly reduced |
